Reference: patent publication US7208309B2, “Inhibitor-resistant HCV NS3 protease” (priority 2002, dated 2007)
Like-named read-outs stand apart in the source and are kept apart here. Numbered stars: 1 amine (or outer) side, 2 acyl side, 3 side chain; on linkers, the order of the positions; unused ones are H or OH. Square brackets hold non-standard residues; d marks the D form. Peptide text beside a SMILES is read from it. * marks the point of attachment. Hyp(2-Ph-quinolin-4-yl) = O=C(O)[C@@H]1C[C@@H](Oc2cc(-c3ccccc3)nc3ccccc23)CN1; X1 = C=CC1C[C@]1(N[*:1])C(=O)[*:2]; Hyp = O=C(O)[C@@H]1C[C@@H](O)CN1; Chg = N[C@H](C(=O)O)C1CCCCC1; Tle = CC(C)(C)[C@H](N)C(=O)O; Nva = CCC[C@H](N)C(=O)O; Bn = c1ccc(C*)cc1

Key:
NS3-NS4A protein WT = molecular target: T1, NS3-NS4A protein WT (Hepatitis C virus genotype 1b, UniProt Q9WMX2); experiment: In vitro enzyme assay, Ki, full length NS3/NS4A protein WT; assay type: biochemical, HCV genotype 1b
T1 construct: TEV protease cleavage site (N); made in house; host or cells: E. coli (pET11a)
Description: (§1) DNA encoding the NS3-NS4A coding region of HCV genotype 1b, that includes a 28-residue N-terminal sequence containing a hexahistidine tag and a TEV protease cleavage (Pause, A. et al. (2003) J. Biol. Chem. 278: 20374–20380) was amplified by PCR and then subcloned into the pET11a bacterial expression vector. Amino acid substitutions A156T and D168V were introduced into the NS3-NS4A coding region using standard site-directed mutagenesis procedures.
(§2) The NS3 protease domain (harboring A156T or D168V or R155Q mutations) were expressed in E. coli and purified as previously described (LaPlante, S. R. et al (1999) J. Biol. Chem. 274: 18618–18624). The NS3-NS4A proteins with either A156T or D168V mutation were also expressed in E. coli and the cell paste was resuspended in 5 mL of lysis buffer (50 mM sodium phosphate, pH 7.5, 20% glycerol, 1 mM EDTA, 0.5% Triton X-100, 0.5 M NaCl) per gram of cells, treated with DNase I, then clarified by a 30-min centrifugation at 150,000×g; the supernatant was diluted 2-fold in 50 mM sodium phosphate, pH 7.5, 0.5 M NaCl and imidazole was added to a final concentration of 25 mM. The NS3-NS4A complex solution was purified by successive steps on a Hi-Trap Ni^+2-chelating column, and poly(U)-Sepharose affinity column previously equilibrated in 50 mM sodium phosphate, pH 7.0, 10% glycerol, 0.2 M NaCl, 0.05% n-dodecyl-β-D-maltoside, 10 mM β-mercaptoethanol. The enzyme was eluted in the same buffer containing 2 M NaCl. The isolated enzymes were stored at −80° C.
(§3) Ki determination—The inhibition constant (Ki) was determined using the depsipeptide fluorogenic substrate anthranilyl-DDIVPAbu[C(O)—O]AMY(3-NO2)TW-OH. The cleavage reaction was continuously monitored at 23° C. on a BMG POLARstar® Galaxy fluorometer, equipped with excitation and emission filters of 320 and 405 nm respectively. […] IC50's were obtained from a non-linear curve fit using the Hill model applied to the % inhibition-concentration data and calculated through the use of SAS (Statistical Software System, SAS Institute Inc., Cary, N.C.).

NS3-NS4A protein A156T = molecular target: T2, NS3-NS4A protein A156T (Hepatitis C virus genotype 1b, UniProt Q9WMX2, A1182T); experiment: In vitro enzyme assay, Ki, full length NS3/NS4A protein A156T; assay type: biochemical, HCV genotype 1b
T2 construct: TEV protease cleavage site (N); made in house; host or cells: E. coli (pET11a)
Description: as §1
(§4) The NS3 protease domain (harboring A156T or D168V or R155Q mutations) were expressed in E. coli and purified as previously described (LaPlante, S. R. et al (1999) J. Biol. Chem. 274: 18618–18624). […]
as §3

NS3-NS4A protein D168V = molecular target: T3, NS3-NS4A protein D168V (Hepatitis C virus genotype 1b, UniProt Q9WMX2, D1194V); experiment: In vitro enzyme assay, Ki, full length NS3/NS4A protein D168V; assay type: biochemical, HCV genotype 1b
T3 construct: TEV protease cleavage site (N); made in house; host or cells: E. coli (pET11a)
Description: as §1, §2, §3

[1] = tested on: bicistronic subgenomic HCV RNA replicon (S22.3 cell line); experiment: HCV RNA replicon cell culture EC50 of the inhibitors used for selection; assay type: cell-based; conditions: EC50 stated for the inhibitor used in resistance selection, replicon cells
Description: The method described by Lohmann et al. (1999, Science 285:110) was used to mimic the replication of subgenomic HCV RNA in a system that is dependent on the function of HCV non-structural proteins and enzymes. This HCV RNA replicon system incorporates two cistrons: one encoding the HCV non-structural region and the second encoding a selectable neomycin resistant marker (i.e. gene encoding neomycin phosphotransferase). As one of skill in the art will appreciate, the second cistron may encode any marker suitable for selection purposes. Cell lines harboring such bicistronic, subgenomic HCV RNA, such as the S22.3 cell line, are described by Kukolj and Pause (see WO 02/052015, the contents of which are hereby incorporated by reference). These cell lines are useful in evaluating the efficacy and potency of potential anti-HCV therapeutics that inhibit one or more of the HCV non-structural proteins.
As shown, Huh-7 cells (8×10^6 cells) were transfected with the bicistronic subgenomic HCV RNA using transfection methods well-established in the art. Transfected Huh-7 cells were selected by growth in neomycin-containing media (0.5 mg/ml neomycin). Specifically, transfected cells replicate the RNA that produces neomycin phosphotransferase thereby rendering the cells resistant to the cytotoxic effect of neomycin. Mutated HCV replicons as described in WO 02/052015 can also be used in accordance with the present method to increase RNA replication and efficiency of replicon establishment.
inhibitor A=cyclopropa[e]pyrrolo [1,2-a][1,4]diazacyclopentadecine-14a(5H)-carboxylic acid, 6-[[(cyclopentyloxy) carbonyl]amino]-1,2,3,6,7,8,9,10,11,13a, 14,15,16,16a-tetradecahydro-2-[[7-methoxy-2-[2-[(1-methylethyl)amino]-4-thiazolyl]-4-quinolinyl]oxy]-5,16-dioxo-, (2R,6S, 12Z, 13aS, 14aR, 16aS), which is described as compound #822 in WO 00/59929, the contents of which is hereby incorporated by reference. The colonies were grown in the presence of increasing concentrations of this inhibitor (EC50 of 2 nM) ranging from 2 nM to 2000 nM.

[2] = tested on: WT HCV subgenomic replicon in Huh-7 cells; experiment: Inhibitor EC50 in WT replicon cell line; assay type: cell-based; conditions: Hepatitis C virus
[3] = tested on: NS3 A156T mutant HCV subgenomic replicon in Huh-7 cells; experiment: Inhibitor EC50 in NS3 A156T mutant replicon cell line; assay type: cell-based; conditions: Hepatitis C virus, Huh-7, read-out: EC50, A156T
Description: (§5) Specific isogenic HCV subgenomic replicon cDNAs individually containing only one of the inhibitor-resistant mutations, i.e. (in this example: A156T; or A156V; or D168V; or D168G) were cloned and corresponding in vitro transcribed RNA of these modified bi-cistronic replicons were generated. The mutant-encoding RNAs were used to construct mutant-containing replicon cell lines in naïve Huh-7 cells as described previously for other HCV replicons. […] They were also used to determine the level of inhibition of the mutant inhibitor-resistant cell lines in the presence of an unrelated HCV NS5B polymerase inhibitor or alpha-interferon. Using the assay described in WO 03/010141 (Example 48) the EC50 of each inhibitor was determined using the mutant cell lines.

[4] = tested on: NS3 A156V mutant HCV subgenomic replicon in Huh-7 cells; experiment: Inhibitor EC50 in NS3 A156V mutant replicon cell line; assay type: cell-based; conditions: Hepatitis C virus, Huh-7, read-out: EC50, A156V
Description: as §5

[5] = tested on: NS3 D168V mutant HCV subgenomic replicon in Huh-7 cells; experiment: Inhibitor EC50 in NS3 D168V mutant replicon cell line; assay type: cell-based; conditions: Hepatitis C virus, Huh-7, read-out: EC50, D168V
Description: as §5

[6] = tested on: NS3 D168G mutant HCV subgenomic replicon in Huh-7 cells; experiment: Inhibitor EC50 in NS3 D168G mutant replicon cell line; assay type: cell-based; conditions: Hepatitis C virus, Huh-7, read-out: EC50, D168G
Description: as §5

[7] = molecular target: T4, NS3 protease (1-180) WT-NS4A peptide complex (Hepatitis C virus genotype 1b, UniProt Q9WMX2); experiment: In vitro enzyme assay, Ki, NS3 protease-NS4A peptide complex WT; assay type: biochemical, HCV
T4 construct: the NS3 protease (1–180) coding region for wild-type; made in house; host or cells: bacterial expression vector (E. coli)
Description: (§6) Alternatively, the NS3 protease (1–180) coding region for wild-type with the sequence ASKKKK at the C-terminus was cloned into a bacterial expression vector and amino acid substitutions A156T, D168V and R155Q were introduced as described above.
as §4, §3

[8] = molecular target: T5, NS3 protease (1-180) A156T-NS4A peptide complex (Hepatitis C virus genotype 1b, UniProt Q9WMX2, A1182T); experiment: In vitro enzyme assay, Ki, NS3 protease-NS4A peptide complex A156T; assay type: biochemical, HCV; conditions: calculated Ki from IC50
T5 construct: the NS3 protease (1–180) coding region for wild-type; made in house; host or cells: E. coli
Description: as §6, §4, §3

[9] = molecular target: T6, NS3 protease (1-180) D168V-NS4A peptide complex (Hepatitis C virus genotype 1b, UniProt Q9WMX2, D1194V); experiment: In vitro enzyme assay, Ki, NS3 protease-NS4A peptide complex D168V; assay type: biochemical, HCV; conditions: calculated Ki from IC50
T6 construct: the NS3 protease (1–180) coding region for wild-type; made in house; host or cells: E. coli
Description: as §6, §4, §3

[10] = molecular target: T7, NS3 protease (1-180) R155Q-NS4A peptide complex (Hepatitis C virus genotype 1b, UniProt Q9WMX2, R1181Q); experiment: In vitro enzyme assay, Ki, NS3 protease-NS4A peptide complex R155Q; assay type: biochemical, HCV; conditions: calculated Ki from IC50
T7 construct: the NS3 protease (1–180) coding region for wild-type; made in house; host or cells: E. coli
Description: as §6, §4, §3

Compound: C=CC1C[C@]1(NC(=O)[C@@H]1C[C@@H](Oc2cc(-c3ccccc3)nc3ccccc23)CN1C(=O)[C@@H](NC(=O)[C@@H](NC(=O)[C@@H](CCC(=O)O)NC(=O)[C@H](CC(=O)O)NC(C)=O)C1CCCCC1)C(C)(C)C)C(=O)O (some centres unmarked) [Compound F] (Ac-D[dE][Chg][Tle][Hyp(2-Ph-quinolin-4-yl)][X1]-OH)
- Ki (NS3-NS4A protein WT): 0.047 nM
- Ki (NS3-NS4A protein A156T; read-out: Ki, A156T): 29 nM
- Ki (NS3-NS4A protein D168V; read-out: Ki, D168V): 12 nM

Compound: CCC[C@H](NC(=O)[C@@H]1C[C@@H](OCc2ccccc2)CN1C(=O)[C@@H](NC(=O)[C@@H](NC(=O)[C@@H](CCC(=O)O)NC(=O)[C@H](CC(=O)O)NC(C)=O)[C@@H](C)CC)C(C)C)C(=O)O [Compound E] (Ac-D[dE]IV[Hyp](Bn)[Nva]-OH)
- Ki (NS3-NS4A protein WT): 1600 nM
- Ki (NS3-NS4A protein D168V; read-out: Ki, D168V): 8100 nM

Compound: COc1ccc2c(O[C@@H]3C[C@H]4C(=O)N[C@]5(C(=O)O)C[C@H]5/C=C\CCCCC[C@H](NC(=O)OC5CCCC5)C(=O)N4C3)cc(-c3csc(NC(C)C)n3)nc2c1 [inhibitor A, cyclopropa[e]pyrrolo [1,2-a][1,4]diazacyclopentadecine-14a(5H)-carboxylic acid, 6-[[(cyclopentyloxy)carbonyl]amino]-1,2,3,6,7,8,9,10,11,13a, 14,15,16,16a-tetradecahydro-2-[[7-methoxy-2-[2-[(1-methylethyl)amino]-4-thiazolyl]-4-quinolinyl]oxy]-5,16-dioxo-, (2R,6S, 12Z, 13aS, 14aR, 16aS)]
- EC50 ([1]; Hepatitis C virus): 2 nM
- EC50 [2]: 0.9 nM
- EC50 [3]: 547 nM
- EC50 [4]: 324 nM
- EC50 [5]: 735 nM
- EC50 [6]: 23 nM
- Ki (NS3-NS4A protein WT): 1.6 nM
- Ki (NS3-NS4A protein A156T; calculated Ki from IC50, read-out: Ki, A156T (calculated Ki from IC50)): 870 nM
- Ki (NS3-NS4A protein D168V; calculated Ki from IC50, read-out: Ki, D168V (calculated Ki from IC50)): 520 nM
- Ki [7]: 5.6 nM
- Ki [8]: 800 nM
- Ki [9]: 970 nM
- Ki [10]: 220 nM

Compound: C=C[C@@H]1C[C@]1(NC(=O)[C@@H]1C[C@@H](Oc2cc(-c3csc(NC(C)=O)n3)nc3cc(OC)ccc23)CN1C(=O)[C@@H](NC(=O)OC1CCCC1)C(C)(C)C)C(=O)O [inhibitor B, cyclopropane carboxylic acid, N-[(cyclopentyloxy)carbonyl]-3-methyl-L-valyl-(4R)-4-[[2-[2-(acetylamino)-4-thiazolyl]-7-methoxy-4-quinolinyl]oxy]-L-prolyl-1-amino-2-ethenyl-, (1R,2S)-]
- EC50 [1]: 40 nM

Compound: COc1ccc2c(O[C@@H]3C[C@H]4C(=O)N[C@]5(C(=O)O)C[C@H]5/C=C\CCCCC[C@H](NC(=O)OC(C)(C)C)C(=O)N4C3)cc(-c3csc(NC(C)=O)n3)nc2c1 [inhibitor C, Cyclopropa[e]pyrrolo[1,2-a][1,4]-diazacyclopentadecine-14a(5H)-carboxylic acid, 2-[[2-[2-(acetylamino)-4-thiazolyl]-7-methoxy-4-quinolinyl]oxy]-6-[[(1,1-dimethylethoxy)carbonyl]amino]-1,2,3,6,7,8,9,10,11,13a,14,15,16,16a-tetradecahydro-5,16-dioxo-, (2R,6S, 12Z, 13aS, 14aR, 16aS)-]
- EC50 [1]: 5 nM
